Drawing on PubChem BioAssay (NCI), this text covers GI50 and TGI for 13 compounds.

Values joined by “and” are separate entries in the source; they are usually repeats but may differ in a detail not shown here. Equal values may be shown once.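 Values below derive from 48-hour exposures of cells grown in 96-well plates, with endpoints linearly interpolated between the two concentrations bracketing the appropriate inhibition level. GI50 is the concentration that inhibits growth by half. At the TGI there is no net growth.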

Some test systems named below: NCI-H522 lung; UO-31 renal; HCT-15 colon; HOP-62 NSCLC; SW-620 colon; SNB-19 CNS; A498 renal; HCC-2998 colon.
Assay in all cases: NCI anticancer screen, dose series, 48 h

As for `Cc1cc(S(N)(=O)=O)c(S/C(=N\NS(=O)(=O)c2ccccc2)c2ccc(Cl)cc2)cc1Cl`, the GI50 in the assay with NCI-H522 lung is 23.2 µM; with UO-31 renal it was more than 100 µM; with HCT-15 colon, more than 100 µM; with HOP-62 NSCLC, more than 100 µM; in the assay on SW-620 colon, more than 100 µM; in the assay with SNB-19 CNS it was more than 100 µM. In the assay on A498 renal, the GI50 is 43 µM. The TGI with NCI-H522 lung was 87.7 µM; with UO-31 renal, more than 100 µM; in the assay with HCT-15 colon, more than 100 µM; with HOP-62 NSCLC, more than 100 µM; in the assay with SW-620 colon, more than 100 µM; in the assay on SNB-19 CNS it was more than 100 µM. Moreover, in the assay with A498 renal, the TGI was more than 100 µM.
`Nc1ccccc1C#Cc1ccccc1C#Cc1cccs1`: the GI50 with NCI-H522 lung was 18.4 µM; in the assay on UO-31 renal, 19.1 µM; in the assay on HCT-15 colon, 13.1 µM; in the assay with HOP-62 NSCLC, 15.1 µM; in the assay with SW-620 colon, 18 µM; in the assay with SNB-19 CNS it was 29.9 µM. In addition, the GI50 in the assay with A498 renal is 15.1 µM. Further, the TGI is 49.1 µM in the assay with NCI-H522 lung; 47.3 µM in the assay on UO-31 renal; 33.5 µM with HCT-15 colon; 29.3 µM in the assay on HOP-62 NSCLC; 41.1 µM in the assay with SW-620 colon; more than 100 µM with SNB-19 CNS. The TGI with A498 renal amounted to 29.5 µM.
As to `COc1ccc(C2NC(=S)NC3=C2CCOc2c3ccc3ccccc23)cc1` (stereo unspecified), the GI50 is 46.6 µM in the assay with NCI-H522 lung; 98.3 µM in the assay on UO-31 renal; 21.4 µM in the assay with HCT-15 colon; more than 100 µM in the assay with HOP-62 NSCLC; more than 100 µM with SW-620 colon; more than 100 µM in the assay on SNB-19 CNS. Moreover, the GI50 in the assay on A498 renal is 16.6 µM. Besides, the TGI with NCI-H522 lung, with UO-31 renal, in the assay with HCT-15 colon, with HOP-62 NSCLC, in the assay with SW-620 colon and in the assay with SNB-19 CNS was more than 100 µM throughout. For the same compound, the TGI with A498 renal was more than 100 µM.
Consider `O=C(O)c1ccccc1NCn1c(=S)sc2ccccc21`, for which the TGI in the assay with NCI-H522 lung is 78.3 µM; with UO-31 renal it was more than 100 µM; with HCT-15 colon, more than 100 µM; in the assay with HOP-62 NSCLC it was more than 100 µM; in the assay with SW-620 colon it was more than 100 µM; in the assay with SNB-19 CNS, more than 100 µM. In the assay on A498 renal, this compound gave a TGI of more than 100 µM.
With `CCCCCCCCCCCCCCCC[n+]1ccccc1`, the GI50 was 0.226 µM in the assay on NCI-H522 lung; 0.795 µM and 1.16 µM with UO-31 renal; 1.1 µM and 1.09 µM with HCT-15 colon; 1.05 µM and 0.482 µM in the assay on HOP-62 NSCLC; 0.391 µM and 0.488 µM in the assay on SW-620 colon; 0.559 µM in the assay with SNB-19 CNS. For the same compound, in the assay with HCC-2998 colon, the GI50 is 0.339 µM and 0.363 µM. Besides, the TGI in the assay on NCI-H522 lung was 0.947 µM; in the assay on UO-31 renal, 2.33 µM and 2.85 µM; in the assay with HCT-15 colon, 2.64 µM and 3.61 µM; in the assay with HOP-62 NSCLC it was 2.35 µM and 1.9 µM; in the assay with SW-620 colon, 1.57 µM and 1.94 µM; in the assay with SNB-19 CNS it was 1.9 µM. Besides, the TGI with HCC-2998 colon is 1.43 µM and 1.68 µM.
As to `Cn1c(=O)c2c(nc(N/N=C/c3ccccc3C(=O)O)n2C)n(C)c1=O`, the TGI in the assay on NCI-H522 lung, in the assay with UO-31 renal, with HCT-15 colon, in the assay with HOP-62 NSCLC, in the assay with SW-620 colon and in the assay on SNB-19 CNS was more than 100 µM throughout. For the same compound, the TGI in the assay on A498 renal was more than 100 µM.
`Clc1ccc(CN2CCCN(Cc3ccc(Cl)cc3)C2c2cc3ccccc3c3ccccc23)cc1`: the TGI was 51 µM with NCI-H522 lung; more than 100 µM with UO-31 renal; more than 100 µM in the assay with HCT-15 colon; more than 100 µM in the assay with HOP-62 NSCLC; more than 100 µM in the assay on SW-620 colon; more than 100 µM with SNB-19 CNS. In the assay with A498 renal, the TGI is 56.5 µM.
`COc1cc2c3c(n(CCCNCCCNCCCN)c(=O)c2cc1OC)-c1cc2c(cc1C3=O)OCO2`: the GI50 in the assay on NCI-H522 lung was more than 100 µM; with UO-31 renal, more than 100 µM; in the assay on HCT-15 colon, 73.6 µM; with SW-620 colon it was 82.5 µM; with SNB-19 CNS it was more than 100 µM; in the assay on A498 renal, more than 100 µM. Moreover, the TGI in the assay with NCI-H522 lung, in the assay with UO-31 renal, in the assay on HCT-15 colon, with SW-620 colon, in the assay with SNB-19 CNS and in the assay on A498 renal was more than 100 µM each time.
In the case of `O=c1cccc(Cl)[nH]1`, the TGI in the assay with NCI-H522 lung, in the assay with UO-31 renal, in the assay with HCT-15 colon, in the assay on HOP-62 NSCLC, in the assay with SW-620 colon and in the assay with SNB-19 CNS was more than 100 µM in each case.
In the case of `CCCCCC[C@H]1C(=O)O[C@H](C)[C@H](NC(=O)c2cccc(NC=O)c2OC)C(=O)O[C@@H](C)[C@@H]1OC(=O)CCC` (tested in a mixture with another compound), the GI50 in the assay on NCI-H522 lung was 13 µM; in the assay with UO-31 renal, 13.2 µM; in the assay on HCT-15 colon it was 11.1 µM; in the assay with HOP-62 NSCLC, 16.9 µM; in the assay with SW-620 colon, 13 µM; in the assay on HCC-2998 colon, 14.9 µM. Further, in the assay on A498 renal, the GI50 was 10 µM. Also, the TGI came out at 34.4 µM in the assay with NCI-H522 lung; 29.3 µM in the assay with UO-31 renal; 33.3 µM with HCT-15 colon; 40.1 µM in the assay with HOP-62 NSCLC; 72.3 µM in the assay with SW-620 colon; 38.2 µM with HCC-2998 colon. This compound also yielded a TGI in the assay with A498 renal of 29.7 µM.
For `COc1cc(N(C)C)c(OC)cc1C=C1C=CC=C1`, the TGI with UO-31 renal, in the assay with HOP-62 NSCLC, with SW-620 colon, with SNB-19 CNS, with HCC-2998 colon and with A498 renal was more than 100 µM throughout.
As to `CCOC1Oc2ccc(C)cc2C(=O)/C1=C\Nc1ccc(S(N)(=O)=O)cc1` (stereo unspecified), the GI50 was more than 50 µM in the assay on NCI-H522 lung; 13.7 µM in the assay with UO-31 renal; 12.5 µM in the assay with HCT-15 colon; 11 µM in the assay with HOP-62 NSCLC; 15.3 µM in the assay on SW-620 colon; 16.1 µM with SNB-19 CNS. For the same compound, the GI50 with A498 renal was 17 µM. For the same compound, the TGI in the assay with NCI-H522 lung was more than 50 µM; in the assay with UO-31 renal, more than 50 µM; in the assay on HCT-15 colon, more than 50 µM; with HOP-62 NSCLC it was 35.1 µM; with SW-620 colon it was more than 50 µM; in the assay with SNB-19 CNS, more than 50 µM. The same compound gave a TGI in the assay on A498 renal of 46.5 µM.
For the compound `CN(C)c1ccc(C(O)C2=CC(=O)c3ccccc3C2=O)cc1` (stereo unspecified), the GI50 with NCI-H522 lung is 2.82 µM; with UO-31 renal, 6.46 µM; in the assay with HCT-15 colon, 4.3 µM; in the assay on HOP-62 NSCLC, 23.1 µM; in the assay on HCC-2998 colon, 17 µM; with A498 renal it was 15.1 µM. The TGI was 9.2 µM in the assay with NCI-H522 lung; 19.3 µM with UO-31 renal; more than 100 µM with HCT-15 colon; 64.7 µM in the assay with HOP-62 NSCLC; 38.7 µM with HCC-2998 colon; 63 µM in the assay on A498 renal.
